Measured values taken from the supplement of paper PMC4862054.

Experiments:
Assay in all cases: drug sensitivity score (DSS), CellTiter-Glo (DSS (AUC-based score)); higher = stronger drug effect (viability inhibition or cytotoxicity); extreme values may be limits of the assay
Settings in all cases: incubation time: 72 h
BT-549 = tested on: BT-549
In short: (§1)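 After 72 h of incubation in 384-well plates with compound at 5 concentrations (10-fold steps, 10,000-fold range set per compound), breast cancer cell lines seeded in 20 µl suspension were read first for CellTox Green fluorescence at 485/520 nm. CellTiter-Glo luminescence was measured next, after 10 min at room temperature. Normalisation on each plate used 0.1 % DMSO and a positive kill control, and the drug sensitivity score was computed from the area under the fitted dose-response curve.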

MDA-MB-436 = tested on: MDA-MB-436
In short: as §1

HCC1143 = tested on: HCC1143
In short: as §1

Hs578T = tested on: Hs578T
In short: as §1

DU-4475 = tested on: DU-4475
In short: as §1

SK-BR-3 = tested on: SK-BR-3
In short: as §1

HDQ-P1 = tested on: HDQ-P1
In short: as §1

CAL-85-1 = tested on: CAL-85-1
In short: as §1

HCC1599 = tested on: HCC1599
In short: as §1

CAL-51 = tested on: CAL-51
In short: as §1

| SMILES | drug sensitivity score (BT-549) | drug sensitivity score (MDA-MB-436) | drug sensitivity score (HCC1143) | drug sensitivity score (Hs578T) | drug sensitivity score (DU-4475) | drug sensitivity score (SK-BR-3) | drug sensitivity score (HDQ-P1) | drug sensitivity score (CAL-85-1) | drug sensitivity score (HCC1599) | drug sensitivity score (CAL-51) |
| --- | --- | --- | --- | --- | --- | --- | --- | --- | --- | --- |
| CN1CCC(COc2cnc(-c3cccc(Cn4nc(-c5cccc(C#N)c5)ccc4=O)c3)nc2)CC1 | 0 | 1.23 | 0 | 0 | 0 | 0 | 0 | 0 | 0 | 0 |
| CN(C)C/C=C/C(=O)Nc1cc2c(Nc3ccc(F)c(Cl)c3)ncnc2cc1O[C@H]1CCOC1 [Afatinib] | 0.0448 | 0 | 0 | 0 | 0 | 17.8 | 8.44 | 6.39 | 0 | 0 |
| COc1cc(Nc2ncc3c(n2)-c2ccc(Cl)cc2C(c2c(F)cccc2OC)=NC3)ccc1C(=O)O [Alisertib] | 12.7 | 11.8 | 8.44 | 5.73 | 9.45 | 0 | 3.21 | 0 | 0 | 12.8 |
| CN1CC[C@H](c2c(O)cc(O)c3c(=O)cc(-c4ccccc4Cl)oc23)[C@H](O)C1 [Alvocidib] | 17.7 | 18.8 | 14.9 | 16.2 | 17.3 | 19.8 | 16.5 | 16.3 | 14.7 | 19 |
| Nc1nc(Cl)nc2c1ncn2[C@H]1C[C@H](O)[C@@H](CO)O1 [Cladribine] | 6.43 | 0 | 0 | 0 | 0 | 0 | 0 | 0 | 0 | 0 |
| Nc1ccn([C@@H]2O[C@H](CO)[C@@H](O)[C@@H]2O)c(=O)n1 [Cytarabine] | 7.56 | 10.5 | 3.36 | 2.8 | 3.25 | 12.2 | 1.06 | 0 | 0 | 13.4 |
| Cc1c2oc3c(C)ccc(C(=O)N[C@@H]4C(=O)N[C@H](C(C)C)C(=O)N5CCC[C@H]5C(=O)N(C)CC(=O)N(C)[C@@H](C(C)C)C(=O)O[C@@H]4C)c3nc-2c(C(=O)N[C@@H]2C(=O)N[C@H](C(C)C)C(=O)N3CCC[C@H]3C(=O)N(C)CC(=O)N(C)[C@@H](C(C)C)C(=O)O[C@@H]2C)c(N)c1=O [Dactinomycin] | 31.3 | 21 | 22.4 | 22.5 | 30.3 | 21.3 | 24.4 | 22.8 | 16.4 | 26.4 |
| COc1cccc2c1C(=O)c1c(O)c3c(c(O)c1C2=O)C[C@@](O)(C(=O)CO)C[C@@H]3O[C@H]1C[C@H](N)[C@H](O)[C@H](C)O1 [Doxorubicin] | 8.09 | 4.44 | 1.04 | 2.18 | 8.65 | 6.19 | 2.13 | 2.97 | 1.68 | 12.4 |
| Cc1ccc(F)c(NC(=O)Nc2ccc(-c3cccc4[nH]nc(N)c34)cc2)c1 [Linifanib] | 0 | 0 | 0 | 0 | 0 | 0 | 0 | 0 | 0 | 1.94 |
| CC(=O)O[C@]1(C(C)=O)CC[C@H]2[C@@H]3C=C(C)C4=CC(=O)CC[C@]4(C)[C@H]3CC[C@@]21C [Megestrol acetate] | 0 | 0 | 0 | 0 | 0 | 0 | 0 | 0 | 0 | 0 |
| S=c1[nH]cnc2nc[nH]c12 [Mercaptopurine] | 0 | 0.565 | 0 | 6.04 | 4 | 0 | 9.67 | 1.24 | 5.32 | 0 |
| Clc1ccc(C(c2ccccc2Cl)C(Cl)Cl)cc1 (stereo not given) [Mitotane] | 0 | 0 | 0 | 0 | 0 | 0 | 0 | 0 | 0 | 0 |
| CCN1CCN(c2ccc(Nc3cc(N(C)C(=O)Nc4c(Cl)c(OC)cc(OC)c4Cl)ncn3)cc2)CC1 [NVP-BGJ398] | 0 | 0 | 0 | 0.39 | 0 | 0 | 0 | 0 | 0 | 0 |
| COc1cccc2cc(-c3nc([C@H]4CC[C@H](C(=O)O)CC4)n4ncnc(N)c34)[nH]c12 [OSI-027] | 6.24 | 4.39 | 2.97 | 2.44 | 2.39 | 13.4 | 7.43 | 5.52 | 0 | 4.69 |
| OC[C@H]1O[C@@H](n2cnc3c2N=CNC[C@H]3O)C[C@@H]1O [Pentostatin] | 0 | 0 | 0 | 0 | 0 | 0 | 0 | 0 | 0 | 0 |
| N#CC[C@H](C1CCCC1)n1cc(-c2ncnc3[nH]ccc23)cn1 [Ruxolitinib] | 0 | 0 | 0 | 0 | 0 | 0 | 0 | 0 | 0 | 0 |
